We go through one molecule from article PMC10385579, “Design, Synthesis, and Biological Evaluation of Indole-2-carboxamides as Potential Multi-Target Antiproliferative Agents” (Pharmaceuticals, 2023).

SMILES strings stand for the structures.

What all share (assay type): cell-based, human
The subject of one experiment is Bcl-2. Description: Bcl-2 level assay in A-549 cells. The method, then: Compounds Va and Vg were explored further for their impact on caspase-8, Bax, and Bacl-2 levels against a human epithelial cancer cell line (A-549) using doxorubicin as a reference. See Supplementary Materials. […]
4.2.8. Bcl-2inhibition assay
Mix all reagents thoroughly without foaming before use. Wash the microwells twice with approximately 300 μL Wash Buffer per well with thorough aspiration of microwell contents between washes. Take caution not to scratch the surface of the microwells. After the last wash, empty the wells and tap microwell strips on absorbent pad or paper towel to remove excess Wash Buffer. Use the microwell strips immediately after washing or place upside down on a wet absorbent paper for not longer than 15 minutes. […] Add 100 μL of Sample […]
Diluent in duplicate to all standard wells and to the blank wells. Prepare standard (1:2 dilution) in duplicate ranging from 32 ng/mL to 0.5 ng/mL. Add 100 μL of Sample Diluent, in duplicate, to the blank wells. Add 80 μL of Sample Diluent, in duplicate, to the sample wells. Add 20 μL of each Sample, in duplicate, to the designated wells. Add 50 μL of diluted biotin-conjugate to all wells, including the blank wells. Cover with a plate cover and incubate at room temperature, on a microplate shaker at 100 rpm if available, for 2 hours. Remove plate cover and empty the wells.
Wash microwell strips 3 times as described in step 2. Add 100 μL of diluted Streptavidin-HRP to all wells, including the blank wells. Cover with a plate cover and incubate at room temperature, on a microplate shaker at 100 rpm if available, for 1 hour. Remove plate cover and empty the wells.
Wash microwell strips 3 times as described in step 2. Proceed to the next step. Pipette 100 μl of mixed TMB Substrate Solution to all wells, including the blanks. Incubate the microwell strips at room temperature (18° to 25°C) for about 15 minutes, if available on a rotator set at 100 rpm.
Avoid direct exposure to intense light. The point, at which the substrate reaction is stopped, is often determined by the ELISA reader. Many ELISA readers record absorbance only up to 2.0
O.D. Therefore, the color development within individual microwells must be watched by the person running the assay and the substrate reaction stopped before positive wells are no longer properly detectable. Stop the enzyme reaction by quickly pipetting 100 μL of Stop Solution into each well, including the blank wells. It is important that the Stop Solution is spread quickly and uniformly throughout the microwells to completely inactivate the enzyme. Results must be read immediately after the Stop Solution is added or within one hour if the microwell strips are stored at 2 - 8°C in the dark. Read absorbance of each microwell on a spectrophotometer using 450 nm as the primary wavelength.

A further experiment deals with caspase-8. The experiment is described as follows: Caspase-8 level assay in A-549 cells. As for the experimental part:
See Supplementary Materials.
4.2.6. Caspase-8 activation assay […]
caspase8, and lysed with Cell Extraction Buffer. This lysate was diluted in Standard Diluent Buffer over the range of the assay and measured for human active caspase-8 content. (Cells are Plated in a density of 1.2 – 1.8 × 10,000 cells/well in a vo lume of 100µl complete growth medium + 100 ul of the tested compound per well in a 96-well plate for 24 hours before the enzyme assay for Tubulin.). The absorbance of each microwell was read on a spectro-photometer at 450 nm. A standard curve is prepared from 7human Caspase-8 standard dilutions and human Caspase-8 concentration determined. […]

For another experiment, the system named is caspase-3. Description: Caspase 3 assay in A-549 cells. The following applies: for Caspase-3 Conc: untreated control 66 pg/mL. As for the experimental part:
Caspases play a crucial function in the induction and completion of apoptosis. Caspase-3 is an essential caspase that cleaves different proteins in cells, resulting in apoptosis. […]
4.2.5. Caspase-3 activation assay
Allow all reagents to reach room temperature before use. Gently mix all liquid reagents prior to use. Determine the number of 8-well strips needed for the assay. Insert these in the frame(s) for current use. Add 100 μl of the Standard Diluent Buffer to the zero standard wells. Well(s) reserved for chromogen blank should be left empty. Add 100 μl of standards and controls or diluted samples to the appropriate microtiter wells. The sample dilution chosen should be optimized for each experimental system. Tap gently on side of plate to mix. Cover wells with plate cover and incubate for 2 hours at room temperature. Thoroughly aspirate or decant solution from wells and discard the liquid, Wash wells 4 times. Pipette 100 μl of Caspase-3 (Active) Detection Antibody solution into each well except the chromogen blank(s). Tap gently on the side of the plate to mix. Cover plate with plate cover and incubate for 1 hour at room temperature. Thoroughly aspirate or decant solution from wells and discard the liquid, Wash wells 4 times. Add 100 μl Anti-Rabbit IgG HRP Working Solution to each well except the chromogen blank(s). Prepare the working dilution as described in Preparing IgG HRP. Cover wells with the plate cover and incubate for 30 minutes at room temperature. Thoroughly aspirate or decant solution from wells and discard the liquid. Wash wells 4 times. Add 100 μl of Stabilized Chromoge n to each well. The liquid in the wells will begin to turn blue. Incubate for 30 minutes at room temperature and in the dark. The incubation time for chromogen substrate is often determined by the microtiter plate reader used. Many plate readers have the capacity to record a maximum optical density (O.D.) of 2.0. The O.D. values should be monitored, and the substrate reaction stopped before the O.D. of the positive wells exceeds the limits of the instrument. The O.D. values at 450 nm can only be read after the Stop Solution has been added to each well. If using a reader that records only to 2.0 O.D., stopping the assay after […]
Add 100 μl of Stop Solution to each well. Tap side of plate gently to mix. The solution in the wells should change from blue to yellow. Read the absorbance of each well at 450 nm having blanked the plate reader against a chromogen blank composed of 100 μl each of Stabilized Chromogen and Stop Solution. Read the plate within 2 hours after adding the Stop Solution. Use a curve fitting software to generate the standard curve. A four-parameter algorithm provides the best standard curve fit. Read the concentrations for unknown samples and controls from the standard curve. Multiply value(s) obtained for sample(s) by the appropriate dilution factor to correct for the dilution in step 3. Samples producing signals greater than that of the highest standard should be diluted in Standard Diluent Buffer and reanalyzed.

The next experiment relates to Bax. The experiment is described as follows: Bax level assay in A-549 cells. The method, then: caspase8, and lysed with Cell Extraction Buffer. This lysate was diluted in Standard Diluent Buffer over the range of the assay and measured for human active caspase-8 content. […]
4.2.7. Bax activation assay
Bring all reagents, except the human Bax-α Standard, to room temperature for at least 30 minutes prior to opening. The human Bax-α Standard solution should not be left at room temperature for more than 10 minutes. All standards, controls and samples should be run in duplicate. Refer to the Assay Layout Sheet to determine the number of wells to be used and put any remaining wells with the desiccant back into the pouch and seal the ziploc. Store unused wells at 4 °C. Pipet 100 μL of Assay Buffer into the S0 (0 pg/mL standard) wells. Pipet 100 μL of Standards #1 through #6 into the appropriate wells. Pipet 100 μL of the Samples into the appropriate wells. Tap the plate gently to mix the contents. Seal the plate and incubate at room temperature on a plate shaker for 1 hour at ~500 rpm. Empty the contents of the wells and wash by adding 400 μL of wash solution to every well. Repeat the wash 4 more times for a total of 5 washes. After the final wash, empty or aspirate the wells and firmly tap the plate on a lint free paper towel to remove any remaining wash buffer.
Pipet 100 μL of yellow Antibody into each well, except the Blank. Seal the plate and incubate at room temperature on a plate shaker for 1 hour at ~500 rpm. Empty the contents of the wells and wash by adding 400 μL of wash solution to every well. Repeat the wash 4 more times for a total of 5 washes. After the final wash, empty or aspirate the wells and firmly tap the plate on a lint free paper towel to remove any remaining wash buffer. Add 100 μL of blue Conjugate to each well, except the Blank. Seal the plate and incubate at room temperature on a plate shaker for 30 minutes […]
Pipet 100 μL of Substrate Solution into each well. Incubate for 30 minutes at room temperature on a plate shaker at ~500 rpm. Pipet 100 μL Stop Sol ution to each well. Blank the plate reader against the Blank wells, read the optical density at 450 nm. Calculate the average net Optical Density (OD) bound for each standard and sample by subtracting the average Blank OD from the average OD for each standard and sample. Using linear graph paper, plot the Average Net OD for each standard versus Bax concentration in each standard. Approximate a straight line through the points.
The concentration of Bax in the unknowns can be determined by interpolation. […]

As to `COc1cccc2c1C(=O)c1c(O)c3c(c(O)c1C2=O)C[C@@](O)(C(=O)CO)C[C@@H]3O[C@H]1C[C@H](N)[C@H](O)[C@H](C)O1` [Doxorubicin, reference compound], the “Bcl-2 Conc” value in the experiment on Bcl-2 (control 5) was 0.90 ng/mL. Also, the “Bcl-2 Fold Reduction” value in the experiment with Bcl-2 (vs control) is 6. Besides, the “Caspase-8 Conc” value in the experiment on caspase-8 (control 0.10) is recorded as 1.80 ng/mL. In addition, the “Caspase-8 Fold Change” value in the experiment with caspase-8 (vs control) was 18. Further, the “Caspase-3 Conc” value in the experiment on caspase-3 worked out at 505 ± 4 pg/mL; in the experiment with caspase-3 (listed as doxorubicin) it was 505 ± 4.0 pg/mL. The “Caspase-3 Fold Change” value with caspase-3 (vs untreated control) is 7.5. Besides, the “Bax Conc” value with Bax (control 9) turned out to be 280 pg/mL. Also, in the experiment with Bax (vs control), the “Bax Fold Change” value is on record as 31.
